Results as given in paper PMC9906638, “AlphaFold accelerates artificial intelligence powered drug discovery: efficient discovery of a novel CDK20 small molecule inhibitor” (Chemical Science, 2023).
Where two headings read alike, the source gives them in different places.

Columns and labels:
CDK20 [1] = target: T1, CDK20 (Homo sapiens, UniProt Q8IZL9); experiment: CDK20 human CMGC kinase binding assay (KINOMEscan); conditions: for Kd: CDK20 kinase binding assay, mean ± SD of three independent experiments; for fold improvement in binding affinity compared to ISM042-2-001: ratio of Kd values
T1 construct: purchased DiscoverX/Eurofins (KINOMEscan service); host or cells: HEK-293
T1 sequence (Q8IZL9 whole entry): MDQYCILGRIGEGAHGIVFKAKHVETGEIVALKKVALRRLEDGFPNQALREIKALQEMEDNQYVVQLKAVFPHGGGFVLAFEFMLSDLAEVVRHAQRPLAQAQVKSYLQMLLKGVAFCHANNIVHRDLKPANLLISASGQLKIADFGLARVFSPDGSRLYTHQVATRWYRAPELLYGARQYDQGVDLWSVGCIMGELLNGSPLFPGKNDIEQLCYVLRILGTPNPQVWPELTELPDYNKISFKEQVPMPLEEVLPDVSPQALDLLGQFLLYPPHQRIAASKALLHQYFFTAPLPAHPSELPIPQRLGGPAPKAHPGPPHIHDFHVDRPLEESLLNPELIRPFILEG
Protocol: CDK20 human CMGC kinase binding assay
The assay was available as a product of the KINOMEscan service from DiscoverX/Eurofins. In brief, CDK20 proteins were produced in HEK-293 cells and subsequently tagged with DNA for qPCR detection. […] The liganded beads were blocked with excess biotin and washed with blocking buffer (SeaBlock (Pierce), 1% BSA, 0.05% Tween 20, and 1 mM DTT) to remove the unbound ligand and to reduce non-specific binding. […] Binding constants (Kds) were determined using an 11-point 3-fold compound dilution series with three DMSO control points. […] The compounds were then diluted directly into the assays such that the final concentration of DMSO was 0.9%. All reactions were performed in polypropylene 384-well plates. Each has a final volume of 0.02 ml. […] The kinase concentration in the eluates was measured by qPCR. Kds were calculated with a standard dose–response curve. The curves were fitted using a non-linear least squares fit with the Levenberg–Marquardt algorithm.

CDK20/CycT1 [2] = target: T2, CDK20/CycT1 (Homo sapiens, UniProt Q8IZL9); experiment: CDK20 kinase activity assay (radiometric 33PanQinase); assay type: biochemical
T2 construct: purchased Reaction Biology Corp. (33PanQinase Activity Assay service)
T2 sequence (Q8IZL9 whole entry): as above
T2 sequence (O60563 whole entry partner): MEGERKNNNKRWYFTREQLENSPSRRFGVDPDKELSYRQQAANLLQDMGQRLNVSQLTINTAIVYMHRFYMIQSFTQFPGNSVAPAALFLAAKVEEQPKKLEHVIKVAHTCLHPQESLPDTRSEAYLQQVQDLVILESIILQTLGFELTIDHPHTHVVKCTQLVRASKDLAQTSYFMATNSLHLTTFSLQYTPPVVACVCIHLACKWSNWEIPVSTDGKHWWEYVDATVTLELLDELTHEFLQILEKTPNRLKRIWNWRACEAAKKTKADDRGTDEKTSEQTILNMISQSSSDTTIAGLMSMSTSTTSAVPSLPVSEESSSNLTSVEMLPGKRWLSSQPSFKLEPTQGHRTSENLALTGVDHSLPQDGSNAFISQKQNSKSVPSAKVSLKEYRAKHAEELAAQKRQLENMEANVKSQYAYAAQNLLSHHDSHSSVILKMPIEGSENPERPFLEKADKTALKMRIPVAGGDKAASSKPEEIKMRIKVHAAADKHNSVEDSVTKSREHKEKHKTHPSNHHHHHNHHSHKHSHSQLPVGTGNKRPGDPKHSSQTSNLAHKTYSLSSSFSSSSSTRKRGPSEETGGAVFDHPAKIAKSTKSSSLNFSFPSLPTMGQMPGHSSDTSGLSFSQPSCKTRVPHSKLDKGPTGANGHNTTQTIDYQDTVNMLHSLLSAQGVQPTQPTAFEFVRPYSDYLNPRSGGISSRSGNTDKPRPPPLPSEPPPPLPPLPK
Protocol: CDK20 kinase activity assay
A radiometric protein kinase assay ([33]PanQinase® ActivityAssay, available as a service product from Reaction Biology Corp.) was used for measuring the kinase activity of the CDK20 kinases. This assay was performed in 96-well FlashPlates™ from PerkinElmer (Boston, MA, USA) in a 50 μl reaction volume. The reaction cocktail was pipetted in four steps in the following order: (a) 25 μl of assay buffer (standard buffer/[γ-^33P]-ATP); (b) 10 μl of ATP solution (in H2O); (c) 5 μl of test compound (in 10% DMSO); (d) 10 μl of enzyme/substrate mixture. The assay for CDK20 kinase contained 70 mM HEPES-NaOH pH 7.5, 3 mM MgCl2, 3 mM MnCl2, 3 μM Na-orthovanadate, 1.2 mM DTT, 50 μg ml^−1 PEG20000, 1.0 μM ATP [γ-[33]P],-ATP (approx. 7 × 10^5 cpm per well), and 200 ng/50 μl kinase protein, and the substrate was 4.0 μg/50 μl. The compounds were dissolved to 1 × 10^−3 M in volumes of 100% DMSO. The 1 × 10^−3 M stock solutions were subjected to a serial, semi-logarithmic dilution using 100% DMSO as a solvent. The final volume of the assay was 50 μL All compounds were tested at 10 final assay concentrations in the range from 1 × 10^−5 M to 3 × 10^−10 M. The final DMSO concentration in the reaction cocktails was 1% in all cases. The “low control” was defined as the value that reflects unspecific binding of radioactivity to the plate in the absence of a protein kinase but in the presence of the substrate. The “high control” was defined as the full activity in the absence of any inhibitor. The difference between high and low controls was taken as 100% activity. As part of the data evaluation the low control value from a particular plate was subtracted from the high control value as well as from all 80 “compound values” of the corresponding plate.
The residual activities for each concentration and the compound’s IC50 values were calculated using Quattro Workflow V3.1.1 (Quattro Research GmbH, Munich, Germany; http://www.quattro-research.com/). […] The fitting method used was a least-squares fit.

CDK20/CycT1 [3] = target: T2, CDK20/CycT1; design: method as in doi:10.1158/1538-7445.AM2016-2821
CDK20 [4] = conditions: cited from earlier work
HEK293 = experiment: Cell viability assay (Celltiter Glo), counter screen HEK293; assay type: cell-based; conditions: Homo sapiens, HEK293, 72 h; counter screen cell line; 3 days incubation; read-out: anti-proliferation IC50 in HEK293
Protocol: (§1) The Huh7 and HEK293 cells were maintained in DMEM with 10% FBS and 1% streptomycin and penicillin in 5% CO2. When the confluence of these two cell lines reached 80–90%, cells were harvested and resuspended, and the proper cells were added into a 384-well plate as below: Huh-7: 650 cells per well; HEK-293 : 300 cells per well. The final testing concentrations of the compounds were: 10 000, 3333, 1111, 370, 123, 41.2, 13.7, 4.57, 1.52, and 0.51 nM. The cells were incubated in a 37 °C, 5% CO2 incubator for 3 days, and then a reagent was added (Celltiter Glo assay kit) to the cells for testing and a Multiplate reader was used to record the chemiluminescence value. And GraphPad Prism 9 software was used to calculate IC50 and plot the effect–dose curve of compounds. The assays were conducted at Pharmaron Inc. in a fee-for-service mode.

Huh7 = experiment: Cell viability assay (Celltiter Glo), Huh7; assay type: cell-based; conditions: Homo sapiens, Huh-7, 72 h; HCC cell line with CDK20 overexpression; 3 days incubation; read-out: anti-proliferation IC50 in Huh7
Protocol: as §1

[5] = CDK20 kinase activity assay, 1.0 μM ATP, values with SD from three independent experiments, read-out: CDK20/CycT1 IC50
[6] = read-out: CDK20/CycT1 IC50; poster of Mueller et al.; cited from earlier work

| Structure (SMILES) | Kd (CDK20 [1]) [µM] | IC50 (CDK20/CycT1 [2]; [5]) [µM] | other results |
| --- | --- | --- | --- |
| CC[C@H](CO)Nc1nc(NCc2ccccc2)c2ncn(C(C)C)c2n1 [Roscovitine] |  |  | IC50 (CDK20/CycT1 [3]; [6]): 8.68 µM |
| CC(C)(CO)CNCc1ccc(Nc2ncc(SCc3ncc(C(C)(C)C)o3)s2)nc1 [BMS-357075] |  |  | Kd (CDK20 [4]; disclosed by Eurofins): 0.056 µM |
| O=C(Nc1ccc2cc(C(=O)Nc3nccs3)ccc2c1)c1ccc(Cl)c(Cl)c1 [AAPK-25] |  |  | Kd (CDK20 [4]): 8.02 µM |
| CC(=O)c1c(C)c2cnc(Nc3ccc(N4CCNCC4)cn3)nc2n(C2CCCC2)c1=O [Palbociclib] |  |  | IC50 (CDK20/CycT1 [3]; poster of Mueller et al.; read-out: CDK20/CycT1 IC50; cited from earlier work): 1.26 µM |
| c1cc(-c2nc3cnncc3s2)nc(N[C@H]2CCNC2)n1 [ISM042-2-025] | > 30 |  |  |
| Cc1ccnc(-n2cncc2N2CC3(COC3)C2)n1 [ISM042-2-019] | > 30 |  |  |
| CCc1cnn2c(NCc3ccc[n+]([O-])c3)cc(N3CCCC[C@H]3CCO)nc12 [Dinaciclib] |  |  | IC50 (CDK20/CycT1 [3]; [6]): 2.86 µM |
| Cn1cc(Oc2ccnc(NC3(C)CC3)c2)cn1 [ISM042-2-004] | > 30 |  |  |
| CCc1ccc(-c2cccc3nc(NC4CCCC4)[nH]c23)[nH]c1=O [ISM042-2-015] | > 30 |  |  |
| NC(=O)c1cc(N2CCC(F)(F)CC2)nc(-c2cc[nH]n2)n1 [ISM042-2-007] | > 30 |  |  |

Further lines, with some results ahead:

| Kd (CDK20 [1]) [µM] | IC50 (CDK20/CycT1 [2]; [5]) [µM] | Structure (SMILES) | other results |
| --- | --- | --- | --- |
| 5.33 ± 1.19 | 7.1 ± 0.478 | CNC(=O)c1cccc(Nc2ncc3ccccc3n2)c1 [ISM042-2-050] |  |
| 17.7 ± 4.03 | 7.8 ± 0.125 | CN1CCN(CCNC(=O)c2cc(Nc3ncc4ccccc4n3)c[nH]2)CC1 [ISM042-2-053] |  |
| 9.2 ± 0.5 | > 6 | CNC(=O)c1cc(Nc2ncc3ccccc3n2)c[nH]1 [ISM042-2-001] |  |
| 0.36 ± 0.0141 | 0.468 ± 0.006 | CNC(=O)c1cc(Nc2ncc3ccc(=O)n(C4CCCC4)c3n2)c[nH]1 [ISM042-2-049] | fold improvement in binding affinity compared to ISM042-2-001 (CDK20 [1]): 24 fold |
| > 30 |  | c1cc(-n2cc(C3COC3)nn2)cc(NC2CC2)n1 [ISM042-2-009] |  |
| 0.567 ± 0.256 | 0.0334 ± 0.0226 | CNC(=O)c1cc(Nc2ncc3ccc(-c4cn[nH]c4)cc3n2)c[nH]1 [ISM042-2-048] | IC50 (HEK293): 1.71 ± 0.67 µM; fold improvement in binding affinity compared to ISM042-2-001 (CDK20 [1]): 15 fold; IC50 (Huh7): 0.209 ± 0.0033 µM |
| 14.3 ± 1.7 | 4.08 ± 0.575 | CN1CCC(NC(=O)c2cc(Nc3ncc4ccccc4n3)c[nH]2)CC1 [ISM042-2-055] |  |
| 18.7 ± 6.34 |  | CN(C)CCNC(=O)c1cc(Nc2ncc3ccccc3n2)c[nH]1 [ISM042-2-052] | IC50 (CDK20/CycT1 [2]): > 6 µM |
